Where two headings read alike, the source gives them in different places.
How the values were obtained:
Assay type in all cases: in vivo
Plasmopara viticola = assay: Test A: grape downy mildew, spray after inoculation, visual disease rating (% disease control); details: 100 = 100% disease control, 0 = no control
Excerpt: General protocol for preparing test suspensions for Test A-C: The test compounds were first dissolved in acetone in an amount equal to 3% of the final volume and then suspended at the desired concentration (in ppm) in acetone and purified water (50/50 mix by volume) containing 250 ppm of the surfactant Trem® 014 (polyhydric alcohol esters). The resulting test suspensions were then used in Tests A-C. Spraying a 200 ppm test suspension to the point of run-off on the test plants was equivalent to a rate of 500 g/ha.
Grape seedlings were inoculated with a spore suspension of Plasmopara viticola (the causal agent of grape downy mildew) and incubated in a saturated atmosphere at 20° C. for 24 h. After a short drying period, the test suspension was sprayed to the point of run-off on the grape seedlings, which were then moved to a growth chamber at 20° C. for 5 days, after which time the grape seedling were placed back into a saturated atmosphere at 20° C. for 24 h. Upon removal, visual disease ratings were made.
Results for Tests A-C are given in Table A. In the table, a rating of 100 indicates 100% disease control and a rating of 0 indicates no disease control (relative to the controls). A dash (-) indicates no test results, “*” indicates compound was tested at 40 ppm and “**” indicates compound was tested at 10 ppm.

Phytophthora infestans [1] = details: tomato late blight, sprayed the day before inoculation
Phytophthora infestans [2] = details: tomato late blight, sprayed 17 h after inoculation
[3] = Cmpd No. unmarked, rate not stated in table (b1197 mentions a 200 ppm test suspension)

Row | Compound | Test A rating (% disease control) (Plasmopara viticola; "*" compound tested at 40 ppm) [%] | Test B rating (% disease control) (Phytophthora infestans [1]; "*" compound tested at 40 ppm) [%] | Test C rating (% disease control) (Phytophthora infestans [2]; "*" compound tested at 40 ppm) [%] | also measured
1 | CONC(=Nc1cc(C)ccc1C)N1CCC(c2nc(C3=NOC(c4c(F)cccc4F)C3)cs2)CC1 (stereo not drawn) [compound 34] | 100 | 100 | 97 | –
2 | CC(C)C(O)C(=O)N1CCC(c2nc(C3=NOC(c4c(F)cccc4F)C3)cs2)CC1 (mixture of isomers) [compound 55] | – | – | – | Test A rating (% disease control) (Plasmopara viticola; "**" compound tested at 10 ppm): 10%; Test B rating (% disease control) (Phytophthora infestans [1]; "**" compound tested at 10 ppm): 100%; Test C rating (% disease control) (Phytophthora infestans [2]; "**" compound tested at 10 ppm): 99%
3 | CSC(=Nc1cc(C)ccc1C)N1CCC(c2nc(C3=NOC(c4c(F)cccc4F)C3)cs2)CC1.I (stereo not drawn) [compound 26] | 99 | 100 | 93 | –
4 | CCC(C)C(=O)C(=O)N1CCC(c2nc(C3=NOC(c4c(F)cccc4F)C3)cs2)CC1 (stereo not drawn) [compound 70] | 100 | 100 | 88 | –
5 | CNC(=Nc1cc(C)ccc1C)N1CCC(c2nc(C3=NOC(c4c(F)cccc4F)C3)cs2)CC1 (stereo not drawn) [compound 35] | 0 | 86 | 26 | –
6 | O=C(C(=O)N1CCC(c2nc(C3=NOC(c4ccccc4F)C3)cs2)CC1)c1cccs1 (stereo not drawn) [compound 46] | 0 | 0 | 0 | –
7 | 5-chloro-1-[4-[4-[4,5-dihydro-5-(2-fluorophenyl)-3-isoxazolyl]-2-thiazolyl]-1-piperidinyl-1-pentanone [Example 7] | – | – | – | Test A rating (% disease control) (Plasmopara viticola; [3]): 98%; Test B rating (% disease control) (Phytophthora infestans [1]; [3]): 100%; Test C rating (% disease control) (Phytophthora infestans [2]; [3]): 71%
